# Assay: Cytotoxicity against human erythrocytes assessed as hemolytic activity after 60 mins
# Format: cell-based, Erythrocyte
# Conditions: read-out: HD50
row,SMILES,HC50 at 1 h
1,C[C@@H]1CC[C@@]2(OC1)O[C@H]1C[C@H]3[C@@H]4CC=C5C[C@@H](O[C@@H]6O[C@H](CO)[C@@H](O[C@H]7O[C@H](C)[C@@H](OCCNC(=O)COc8ccccc8)[C@H](O)[C@@H]7O)[C@H](O)[C@H]6O[C@H]6O[C@H](C)[C@@H](O)[C@H](O)[C@@H]6O)CC[C@]5(C)[C@H]4CC[C@]3(C)[C@H]1[C@@H]2C,7.6 µM
2,C[C@@H]1CC[C@@]2(OC1)O[C@H]1C[C@H]3[C@@H]4CC=C5C[C@@H](O[C@@H]6O[C@H](CO)[C@@H](O[C@H]7O[C@H](C)[C@@H](OCCNC(=O)COc8ccc(Cl)cc8)[C@H](O)[C@@H]7O)[C@H](O)[C@H]6O[C@H]6O[C@H](C)[C@@H](O)[C@H](O)[C@@H]6O)CC[C@]5(C)[C@H]4CC[C@]3(C)[C@H]1[C@@H]2C,2.9 µM
3,C[C@@H]1CC[C@@]2(OC1)O[C@H]1C[C@H]3[C@@H]4CC=C5C[C@@H](O[C@@H]6O[C@H](CNC(=O)/C=C/c7ccccc7)[C@@H](O[C@H]7O[C@H](C)[C@@H](O)[C@H](O)[C@@H]7O)[C@H](O)[C@H]6O[C@H]6O[C@H](C)[C@@H](O)[C@H](O)[C@@H]6O)CC[C@]5(C)[C@H]4CC[C@]3(C)[C@H]1[C@@H]2C,11.8 µM
4,C[C@@H]1CC[C@@]2(OC1)O[C@H]1C[C@H]3[C@@H]4CC=C5C[C@@H](O[C@@H]6O[C@H](CNC(=O)COc7ccccc7)[C@@H](O[C@H]7O[C@H](C)[C@@H](O)[C@H](O)[C@@H]7O)[C@H](O)[C@H]6O[C@H]6O[C@H](C)[C@@H](O)[C@H](O)[C@@H]6O)CC[C@]5(C)[C@H]4CC[C@]3(C)[C@H]1[C@@H]2C,9.4 µM
5,C=CCCCCCCCCC(=O)NCCO[C@H]1[C@H](O)[C@H](O)[C@@H](O[C@H]2[C@H](O)[C@@H](O[C@H]3O[C@H](C)[C@@H](O)[C@H](O)[C@@H]3O)[C@H](O[C@H]3CC[C@@]4(C)C(=CC[C@H]5[C@@H]6C[C@@H]7O[C@]8(CC[C@@H](C)CO8)[C@@H](C)[C@@H]7[C@@]6(C)CC[C@@H]54)C3)O[C@@H]2CO)O[C@@H]1C,3.8 µM
6,CC(=O)NCCO[C@H]1[C@H](O)[C@H](O)[C@@H](O[C@H]2[C@H](O)[C@@H](O[C@H]3O[C@H](C)[C@@H](O)[C@H](O)[C@@H]3O)[C@H](O[C@H]3CC[C@@]4(C)C(=CC[C@H]5[C@@H]6C[C@@H]7O[C@]8(CC[C@@H](C)CO8)[C@@H](C)[C@@H]7[C@@]6(C)CC[C@@H]54)C3)O[C@@H]2CO)O[C@@H]1C,9.2 µM
7,COc1ccc(C(=O)NCCO[C@H]2[C@H](O)[C@H](O)[C@@H](O[C@H]3[C@H](O)[C@@H](O[C@H]4O[C@H](C)[C@@H](O)[C@H](O)[C@@H]4O)[C@H](O[C@H]4CC[C@@]5(C)C(=CC[C@H]6[C@@H]7C[C@@H]8O[C@]9(CC[C@@H](C)CO9)[C@@H](C)[C@@H]8[C@@]7(C)CC[C@@H]65)C4)O[C@@H]3CO)O[C@@H]2C)cc1,4.5 µM
8,C[C@@H]1CC[C@@]2(OC1)O[C@H]1C[C@H]3[C@@H]4CC=C5C[C@@H](O[C@@H]6O[C@H](CO)[C@@H](O[C@H]7O[C@H](C)[C@@H](OCCNC(=O)OCC8c9ccccc9-c9ccccc98)[C@H](O)[C@@H]7O)[C@H](O)[C@H]6O[C@H]6O[C@H](C)[C@@H](O)[C@H](O)[C@@H]6O)CC[C@]5(C)[C@H]4CC[C@]3(C)[C@H]1[C@@H]2C,3 µM
9,C[C@@H]1CC[C@@]2(OC1)O[C@H]1C[C@H]3[C@@H]4CC=C5C[C@@H](O[C@@H]6O[C@H](CNC(=O)COc7ccc(Cl)cc7)[C@@H](O[C@H]7O[C@H](C)[C@@H](O)[C@H](O)[C@@H]7O)[C@H](O)[C@H]6O[C@H]6O[C@H](C)[C@@H](O)[C@H](O)[C@@H]6O)CC[C@]5(C)[C@H]4CC[C@]3(C)[C@H]1[C@@H]2C,9.4 µM
10,C[C@@H]1CC[C@@]2(OC1)O[C@H]1C[C@H]3[C@@H]4CC=C5C[C@@H](O[C@@H]6O[C@H](CO)[C@@H](O[C@H]7O[C@H](C)[C@@H](OCCNC(=O)/C=C/c8ccccc8)[C@H](O)[C@@H]7O)[C@H](O)[C@H]6O[C@H]6O[C@H](C)[C@@H](O)[C@H](O)[C@@H]6O)CC[C@]5(C)[C@H]4CC[C@]3(C)[C@H]1[C@@H]2C,1.5 µM
11,C[C@@H]1CC[C@@]2(OC1)O[C@H]1C[C@H]3[C@@H]4CC=C5C[C@@H](O[C@@H]6O[C@H](CNS(=O)(=O)c7cccc8c(N(C)C)cccc78)[C@@H](O[C@H]7O[C@H](C)[C@@H](O)[C@H](O)[C@@H]7O)[C@H](O)[C@H]6O[C@H]6O[C@H](C)[C@@H](O)[C@H](O)[C@@H]6O)CC[C@]5(C)[C@H]4CC[C@]3(C)[C@H]1[C@@H]2C,6.9 µM
12,C/C=C/C=C/C(=O)NCCO[C@H]1[C@H](O)[C@H](O)[C@@H](O[C@H]2[C@H](O)[C@@H](O[C@H]3O[C@H](C)[C@@H](O)[C@H](O)[C@@H]3O)[C@H](O[C@H]3CC[C@@]4(C)C(=CC[C@H]5[C@@H]6C[C@@H]7O[C@]8(CC[C@@H](C)CO8)[C@@H](C)[C@@H]7[C@@]6(C)CC[C@@H]54)C3)O[C@@H]2CO)O[C@@H]1C,1.6 µM
13,C[C@@H]1CC[C@@]2(OC1)O[C@H]1C[C@H]3[C@@H]4CC=C5C[C@@H](O[C@@H]6O[C@H](CO)[C@@H](O[C@H]7O[C@H](C)[C@@H](OCCNS(=O)(=O)c8cccc9c(N(C)C)cccc89)[C@H](O)[C@@H]7O)[C@H](O)[C@H]6O[C@H]6O[C@H](C)[C@@H](O)[C@H](O)[C@@H]6O)CC[C@]5(C)[C@H]4CC[C@]3(C)[C@H]1[C@@H]2C,1.3 µM
14,C[C@@H]1CC[C@@]2(OC1)O[C@H]1C[C@H]3[C@@H]4CC=C5C[C@@H](O[C@@H]6O[C@H](CO)[C@@H](O[C@H]7O[C@H](C)[C@@H](OCCNC(=O)C(F)(F)F)[C@H](O)[C@@H]7O)[C@H](O)[C@H]6O[C@H]6O[C@H](C)[C@@H](O)[C@H](O)[C@@H]6O)CC[C@]5(C)[C@H]4CC[C@]3(C)[C@H]1[C@@H]2C,5.7 µM
15,C[C@@H]1CC[C@@]2(OC1)O[C@H]1C[C@H]3[C@@H]4CC=C5C[C@@H](O[C@@H]6O[C@H](CO)[C@@H](O[C@H]7O[C@H](C)[C@@H](OCCNC(=O)CCCCl)[C@H](O)[C@@H]7O)[C@H](O)[C@H]6O[C@H]6O[C@H](C)[C@@H](O)[C@H](O)[C@@H]6O)CC[C@]5(C)[C@H]4CC[C@]3(C)[C@H]1[C@@H]2C,3.8 µM
16,CCCCCCCCCCCCCCCCCC(=O)NCCO[C@H]1[C@H](O)[C@H](O)[C@@H](O[C@H]2[C@H](O)[C@@H](O[C@H]3O[C@H](C)[C@@H](O)[C@H](O)[C@@H]3O)[C@H](O[C@H]3CC[C@@]4(C)C(=CC[C@H]5[C@@H]6C[C@@H]7O[C@]8(CC[C@@H](C)CO8)[C@@H](C)[C@@H]7[C@@]6(C)CC[C@@H]54)C3)O[C@@H]2CO)O[C@@H]1C,> 50 µg/mL
17,C[C@@H]1CC[C@@]2(OC1)O[C@H]1C[C@H]3[C@@H]4CC=C5C[C@@H](O[C@@H]6O[C@H](CNC(=O)OCC7c8ccccc8-c8ccccc87)[C@@H](O[C@H]7O[C@H](C)[C@@H](O)[C@H](O)[C@@H]7O)[C@H](O)[C@H]6O[C@H]6O[C@H](C)[C@@H](O)[C@H](O)[C@@H]6O)CC[C@]5(C)[C@H]4CC[C@]3(C)[C@H]1[C@@H]2C,9 µM
18,CCCCCCCCCCCCCC(=O)NCCO[C@H]1[C@H](O)[C@H](O)[C@@H](O[C@H]2[C@H](O)[C@@H](O[C@H]3O[C@H](C)[C@@H](O)[C@H](O)[C@@H]3O)[C@H](O[C@H]3CC[C@@]4(C)C(=CC[C@H]5[C@@H]6C[C@@H]7O[C@]8(CC[C@@H](C)CO8)[C@@H](C)[C@@H]7[C@@]6(C)CC[C@@H]54)C3)O[C@@H]2CO)O[C@@H]1C,> 50 µg/mL
19,C[C@@H]1CC[C@@]2(OC1)O[C@H]1C[C@H]3[C@@H]4CC=C5C[C@@H](O[C@@H]6O[C@H](CO)[C@@H](O[C@H]7O[C@H](C)[C@@H](OCCNC(=O)c8ccccc8)[C@H](O)[C@@H]7O)[C@H](O)[C@H]6O[C@H]6O[C@H](C)[C@@H](O)[C@H](O)[C@@H]6O)CC[C@]5(C)[C@H]4CC[C@]3(C)[C@H]1[C@@H]2C,49.3 µM
20,C[C@@H]1CC[C@@]2(OC1)O[C@H]1C[C@H]3[C@@H]4CC=C5C[C@@H](O[C@@H]6O[C@H](CO)[C@@H](O[C@H]7O[C@H](C)[C@@H](OCCNC(=O)c8ccccc8I)[C@H](O)[C@@H]7O)[C@H](O)[C@H]6O[C@H]6O[C@H](C)[C@@H](O)[C@H](O)[C@@H]6O)CC[C@]5(C)[C@H]4CC[C@]3(C)[C@H]1[C@@H]2C,1.7 µM
21,C[C@@H]1CC[C@@]2(OC1)O[C@H]1C[C@H]3[C@@H]4CC=C5C[C@@H](O[C@@H]6O[C@H](CO)[C@@H](O[C@H]7O[C@H](C)[C@@H](OCCNC(=O)c8ccc([N+](=O)[O-])cc8)[C@H](O)[C@@H]7O)[C@H](O)[C@H]6O[C@H]6O[C@H](C)[C@@H](O)[C@H](O)[C@@H]6O)CC[C@]5(C)[C@H]4CC[C@]3(C)[C@H]1[C@@H]2C,4.9 µM
22,C[C@@H]1CC[C@@]2(OC1)O[C@H]1C[C@H]3[C@@H]4CC=C5C[C@@H](O[C@@H]6O[C@H](CO)[C@@H](O[C@H]7O[C@H](C)[C@@H](OCCN)[C@H](O)[C@@H]7O)[C@H](O)[C@H]6O[C@H]6O[C@H](C)[C@@H](O)[C@H](O)[C@@H]6O)CC[C@]5(C)[C@H]4CC[C@]3(C)[C@H]1[C@@H]2C,2.6 µM
23,C[C@@H]1CC[C@@]2(OC1)O[C@H]1C[C@H]3[C@@H]4CC=C5C[C@@H](O[C@@H]6O[C@H](CO)[C@@H](O[C@H]7O[C@H](C)[C@@H](OCCN=[N+]=[N-])[C@H](O)[C@@H]7O)[C@H](O)[C@H]6O[C@H]6O[C@H](C)[C@@H](O)[C@H](O)[C@@H]6O)CC[C@]5(C)[C@H]4CC[C@]3(C)[C@H]1[C@@H]2C,9.7 µM
